Measurements published in ChEMBL document CHEMBL2413005, “A novel necroptosis inhibitor-necrostatin-21 and its SAR study” (Bioorg Med Chem Lett, 2013).

Experiments:
[1] = Inhibition of RIP1/JNK2 (unknown origin)-mediated necrosis
[2] = target: Mitogen-activated protein kinase 10/Receptor-interacting serine/threonine-protein kinase 1 (Homo sapiens) (UniProt P53779+Q13546); experiment: Ratio of necrostatin-21 EC50 to compound EC50 for RIP1/JNK2 (unknown origin)-mediated necrosis; type: protein assay
Mitogen-activated protein kinase 10/Receptor-interacting serine/threonine-protein kinase 1 (Homo sapiens), sequence (P53779 whole entry, looked up): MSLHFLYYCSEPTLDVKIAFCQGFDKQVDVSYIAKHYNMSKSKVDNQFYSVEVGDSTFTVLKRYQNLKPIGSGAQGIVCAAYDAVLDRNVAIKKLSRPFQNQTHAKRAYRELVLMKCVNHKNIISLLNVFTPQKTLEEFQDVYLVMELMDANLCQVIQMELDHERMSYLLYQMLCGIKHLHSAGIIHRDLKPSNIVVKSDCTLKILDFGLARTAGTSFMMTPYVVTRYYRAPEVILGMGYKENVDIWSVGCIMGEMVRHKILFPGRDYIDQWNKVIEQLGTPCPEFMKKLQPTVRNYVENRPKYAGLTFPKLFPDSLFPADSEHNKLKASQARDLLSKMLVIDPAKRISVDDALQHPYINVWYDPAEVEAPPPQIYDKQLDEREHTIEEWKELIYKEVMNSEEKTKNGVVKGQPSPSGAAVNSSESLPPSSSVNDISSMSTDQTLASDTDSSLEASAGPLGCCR
Mitogen-activated protein kinase 10/Receptor-interacting serine/threonine-protein kinase 1 (Homo sapiens), sequence (Q13546 whole entry, looked up): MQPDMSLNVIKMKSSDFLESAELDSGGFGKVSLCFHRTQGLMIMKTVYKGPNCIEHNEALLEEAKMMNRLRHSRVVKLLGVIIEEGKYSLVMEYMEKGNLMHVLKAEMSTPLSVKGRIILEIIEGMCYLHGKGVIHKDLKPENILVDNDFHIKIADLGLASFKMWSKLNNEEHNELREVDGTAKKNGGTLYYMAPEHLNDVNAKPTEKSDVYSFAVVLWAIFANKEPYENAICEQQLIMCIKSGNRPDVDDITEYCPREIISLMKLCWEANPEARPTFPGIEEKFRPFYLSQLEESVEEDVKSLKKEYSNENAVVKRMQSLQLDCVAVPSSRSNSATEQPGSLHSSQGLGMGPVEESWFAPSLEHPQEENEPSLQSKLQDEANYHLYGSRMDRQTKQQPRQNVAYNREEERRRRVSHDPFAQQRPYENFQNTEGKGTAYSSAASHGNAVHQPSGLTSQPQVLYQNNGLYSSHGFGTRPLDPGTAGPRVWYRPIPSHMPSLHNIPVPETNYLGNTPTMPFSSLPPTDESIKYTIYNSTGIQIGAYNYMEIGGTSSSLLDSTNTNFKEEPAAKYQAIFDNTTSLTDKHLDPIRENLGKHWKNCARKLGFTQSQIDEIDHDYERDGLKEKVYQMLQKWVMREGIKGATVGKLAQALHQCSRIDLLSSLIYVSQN

SMILES | EC50 [1] [nM] | Ratio EC50 [2]
COc1cc2[nH]c3c(c2cc1OC)CCc1c[nH]nc1-3 | 47 | –
Clc1cccc2[nH]c3c(c12)CCc1c[nH]nc1-3 | 670 | –
COc1ccc2c3c([nH]c2c1)-c1n[nH]cc1CC3 | 100 | –
Clc1ccc2c3c([nH]c2c1)-c1n[nH]cc1CC3 | 250 | –
Fc1cccc2c3c([nH]c12)-c1n[nH]cc1CC3 | 860 | –
c1[nH]nc2c1CCc1c-2[nH]c2cc3c(cc12)OCO3 | 150 | –
c1ccc2c(c1)[nH]c1c2ccc2c[nH]nc21 | 3620 | –
COc1cccc2[nH]c3c(c12)CCc1c[nH]nc1-3 | 1450 | –
Cc1cccc2c3c([nH]c12)-c1n[nH]cc1CC3 | 760 | –
c1[nH]nc2c1CCc1c-2[nH]c2cc3c(cc12)OCCO3 | 2640 | –
c1ccc2c3c([nH]c2c1)-c1n[nH]cc1C3 | 5790 | –
N#Cc1ccc2c3c([nH]c2c1)-c1n[nH]cc1CC3 | 110 | –
CC1Cc2c([nH]c3ccccc23)-c2n[nH]cc21 (configuration not stated) | 810 | –
Fc1ccc2[nH]c3c(c2c1)CCc1c[nH]nc1-3 | 140 | –
N#Cc1ccc2[nH]c3c(c2c1)CCc1c[nH]nc1-3 | 80 | –
CCc1ccc2[nH]c3c(c2c1)CCc1c[nH]nc1-3 | 780 | –
O=[N+]([O-])c1cccc2c3c([nH]c12)-c1n[nH]cc1CC3 | 6320 | –
COc1cc2[nH]c3c(c2cc1C#N)CCc1c[nH]nc1-3 | 14 | > 35
COc1ccc2[nH]c3c(c2c1)CCc1c[nH]nc1-3 | 170 | –
FC(F)(F)c1ccc2c3c([nH]c2c1)-c1n[nH]cc1CC3 | 250 | –
COc1cc(OC)c2c3c([nH]c2c1)-c1n[nH]cc1CC3 | 110 | –
